Reference: publication PMC9595134, “Novel pituitary actions of GnRH in teleost: The link between reproduction and feeding regulation” (Frontiers in Endocrinology, 2022)
Where a SMILES comes first, the peptide text is derived from it. [ ]: non-standard residue; d: D form. pGlu = O=C1CC[C@@H](C(=O)O)N1

Tested on: grass carp pituitary cells
Assay: RNA-seq of pituitary cells treated with GnRH3
Format: cell-based, grass carp (Ctenopharyngodon idellus)
Conditions: GnRH3 1 μM, 24 h
Text: Then, total RNA was extracted from each well by TRIzol reagent (Yeasen) and DNase II was used to eliminate the interference of genomic DNA. The concentration and purity of each RNA sample were detected by a NanoDrop 2000 spectrophotometer, while the quality of RNA was identified on an Agilent 2100 Bioanalyzer using the RNA 6000 Nano Kit (Agilent Technologies, Santa Clara, CA, USA). […] In this study, a read depth of 0.6 billion 150-bp single-end reads was used and about 90% of reads were mapped to the genome. Gene expression levels were assigned individual values by being normalized to the number of transcripts per kilobase of exon model per million […]. […] The P-value indicated the credibility of each differential gene expression and was corrected by the false discovery rate (FDR) ([21]). […] In the present study, using grass carp pituitary cells as model, high-throughput RNA-seq was used to examine the pituitary actions of GnRH3 in teleost. […] The most abundant GO terms among the cellular component category were ‘intracellular part’, ‘membrane-bounded organelle’, ‘intracellular membrane-bounded organelle’, ‘organelle part’, and ‘intracellular organelle part’. Furthermore, the plentiful groups of biological processes were ‘metabolic process’, ‘organic substance metabolic process’, ‘primary metabolic process’, ‘cellular metabolic process’, and ‘biological regulation ( Figure 3A ).

With `CC(C)C[C@H](NC(=O)[C@H](Cc1c[nH]c2ccccc12)NC(=O)CNC(=O)[C@H](Cc1ccc(O)cc1)NC(=O)[C@H](CO)NC(=O)[C@H](Cc1c[nH]c2ccccc12)NC(=O)[C@H](Cc1c[nH]cn1)NC(=O)[C@@H]1CCC(=O)N1)C(=O)N1CCC[C@H]1C(=O)NCC(N)=O` [GnRH3] ([pGlu]HWSYGWLPG-NH2) the “fold change (FC), suhb mRNA” value (3-Beta-hydroxysteroid sulfotransferase, FDR 2.86E-22) was 0.44, the “fold change (FC), atp5me mRNA” value (ATP synthase subunit e, FDR 5.40E-07) was 0.69 and the “fold change (FC), arpc4 mRNA” value (Actin-related protein 2/3 subunit 4-like, FDR 1.86E-42) was 0.66. For the same compound, the “fold change (FC), creb2 mRNA” value (Activating transcription factor 4b, FDR 1.69E-07) was 1.56, the “fold change (FC), cart2 mRNA” value (Amphetamine-regulated transcript II precursor, FDR 1.73E-22) was 19.16 and the “fold change (FC), anx11 mRNA” value (Annexin 11a, FDR 0) was 3.17. The “fold change (FC), mx1 mRNA” value (Antiviral effector Mx3, FDR 0.004203) was 0.29, the “fold change (FC), manf mRNA” value (Astrocyte-derived neurotrophic factor, FDR 6.58E-124) was 1.71 and the “fold change (FC), npr3 mRNA” value (Atrial natriuretic peptide receptor 3 isoform X1, FDR 0) was 11.53. For the same compound, the “fold change (FC), e2.7.3.2 mRNA” value (Brain creatine kinase b, FDR 0) was 3.88, the “fold change (FC), agrb1 mRNA” value (Brain-specific angiogenesis inhibitor 1-like, FDR 0) was 8.87 and the “fold change (FC), calm mRNA” value (Calmodulin, FDR 2.37E-221) was 0.68. The “fold change (FC), ctsl mRNA” value (Cathepsin La isoform X1, FDR 0) was 2.55, the “fold change (FC), cckar mRNA” value (Cholecystokinin receptor-like isoform, FDR 0.40) was 1.41 and the “fold change (FC), chd4 mRNA” value (Chromodomain-DNA-binding protein 4, FDR 3.30E-172) was 0.64. For the same compound, the “fold change (FC), ctro mRNA” value (Citron Rho-interacting kinase, FDR 3.29E-164) was 5.24, the “fold change (FC), bha15 mRNA” value (Class A basic helix-loop-helix protein 15, FDR 0) was 1.66 and the “fold change (FC), sod1 mRNA” value (Copper/zinc superoxide dismutase, FDR 1.09E-31) was 0.69. For the same compound, the “fold change (FC), mdh1 mRNA” value (Cytosolic malate dehydrogenase, FDR 4.31E-77) was 0.68, the “fold change (FC), dgkz mRNA” value (Diacylglycerol kinase zeta-like isoform X1, FDR 0.003213) was 0.41 and the “fold change (FC), drd2 mRNA” value (Dopamine D2 receptor, FDR 2.63E-37) was 0.35. The “fold change (FC), rergl mRNA” value (Estrogen-regulated inhibitor-like protein, FDR 2.35E-26) was 6.29, the “fold change (FC), npy2r mRNA” value (Europeptide Y receptor type 2-like, FDR 0.07342027) was 0.44 and the “fold change (FC), fabp7 mRNA” value (Fatty acid binding protein 7, FDR 5.12E-107) was 0.50. The “fold change (FC), fabp3 mRNA” value (Fatty-acid binding protein 3b, FDR 1.56E-177) was 0.63, the “fold change (FC), fth1 mRNA” value (Ferritin heavy chain, FDR 0) was 1.90 and the “fold change (FC), gmpr1 mRNA” value (GMP reductase 1, FDR 2.64E-126) was 0.61. The “fold change (FC), bip mRNA” value (GRP78, FDR 5.39E-31) was 1.78, the “fold change (FC), ggh mRNA” value (Gamma-glutamyl hydrolase, FDR 1.06E-186) was 1.51 and the “fold change (FC), grp mRNA” value (Gastrin-releasing peptide-like, FDR 1.46E-176) was 1.52. The “fold change (FC), gst mRNA” value (Glutathione S-transferase, FDR 8.59E-06) was 0.67, the “fold change (FC), gphb5 mRNA” value (Glycoprotein hormone beta-5, FDR 2.13E-64) was 0.69 and the “fold change (FC), gthα mRNA” value (Glycoprotein hormones alpha chain, FDR 0) was 1.28. For the same compound, the “total number of different expression genes (DEGs)” value (three replicates, TPM >5, FDR <0.05) was 820, the “number of downregulated genes” value (three replicates, TPM >5, FDR <0.05, FC <0.7) was 575 and the “number of upregulated genes” value (three replicates, TPM >5, FDR <0.05, FC >1.5) was 245. The “fold change (FC), pa2g3 mRNA” value (Group 3 secretory phospholipase A2-like, FDR 6.47E-212) was 0.29, the “fold change (FC), hpt mRNA” value (Haptoglobin-like, FDR 4.16E-131) was 5.16 and the “fold change (FC), hmgb1 mRNA” value (High-mobility group box 1, FDR 7.95E-46) was 0.69. The “fold change (FC), hint1 mRNA” value (Histidine triad nucleotide-binding protein 1, FDR 7.80E-16) was 0.66, the “fold change (FC), h2a mRNA” value (Histone H2A, FDR 1.56E-20) was 0.63 and the “fold change (FC), h2b3 mRNA” value (Histone H2B 3, FDR 4.58E-23) was 0.53. For the same compound, the “fold change (FC), h4 mRNA” value (Histone H4, FDR 0.002615) was 0.68, the “fold change (FC), inhba mRNA” value (Inhibin-beta A, FDR 1.08E-11) was 1.90 and the “fold change (FC), il10ra mRNA” value (Interleukin-10 receptor 1, FDR 0.009871) was 27.19. For the same compound, the “fold change (FC), erg7 mRNA” value (Lanosterol synthase, FDR 1.00E-62) was 0.43, the “fold change (FC), lepr mRNA” value (Leptin receptor long form, FDR 6.73E-61) was 2.60 and the “fold change (FC), lhβ mRNA” value (Luteinizing hormone, FDR 0) was 1.32. The “fold change (FC), rfx1 mRNA” value (MHC class II regulatory factor RFX1, FDR 0) was 0.28, the “fold change (FC), mvp mRNA” value (Major vault protein, FDR 2.14E-255) was 0.64 and the “fold change (FC), mshr1 mRNA” value (Melanocyte-stimulating hormone receptor, FDR 0) was 0.43. For the same compound, the “fold change (FC), m3k20 mRNA” value (Mitogen-activated protein kinase kinase 20, FDR 0.00526) was 0.31, the “fold change (FC), smad7 mRNA” value (Mothers against decapentaplegic homolog 7, FDR 7.44E-31) was 1.78 and the “fold change (FC), mcfd2 mRNA” value (Multiple coagulation factor deficiency protein, FDR 3.57E-236) was 1.65. The “fold change (FC), marcksl1b mRNA” value (Myristoylated alanine-rich C substrate 2, FDR 2.63E-101) was 0.67, the “fold change (FC), nab1 mRNA” value (NGFI-A-binding protein 1, FDR 3.65E-131) was 5.88 and the “fold change (FC), nec1 mRNA” value (Neuroendocrine convertase 1, FDR 0) was 1.54. For the same compound, the “fold change (FC), nfasc mRNA” value (Neurofascin, FDR 5.61E-52) was 10.71, the “fold change (FC), nmb mRNA” value (Neuromedin-B-like, FDR 4.39E-07) was 3.29 and the “fold change (FC), nltp mRNA” value (Non-specific lipid-transfer protein, FDR 2.86E-12) was 0.41. The “fold change (FC), nucb1 mRNA” value (Nucleobindin-1 precursor, FDR 1.72E-149) was 1.56, the “fold change (FC), nlrp3 mRNA” value (PYD domains-containing protein 3-like, FDR 0.000497) was 0.26 and the “fold change (FC), fkbp11 mRNA” value (Peptidyl-prolyl cis-trans isomerase, FDR 0) was 1.94. For the same compound, the “fold change (FC), gpr61 mRNA” value (Probable G-protein coupled receptor-like, FDR 2.17E-78) was 7.06, the “fold change (FC), pdyn mRNA” value (Proenkephalin-B-like isoform X1, FDR 7.38E-17) was 5.14 and the “fold change (FC), prl mRNA” value (Prolactin, FDR 0) was 1.22. For the same compound, the “fold change (FC), s100b mRNA” value (Protein S100-B, FDR 3.01E-240) was 0.31, the “fold change (FC), ppp1r17 mRNA” value (Protein phosphatase 1 regulatory 17-like, FDR 2.87E-10) was 0.68 and the “fold change (FC), r4rl2 mRNA” value (Reticulon 4 receptor-like 2b precursor, FDR 6.85E-299) was 93.68. For the same compound, the “fold change (FC), estd mRNA” value (S-formylglutathione hydrolase, FDR 4.80E-36) was 0.37, the “fold change (FC), scg2 mRNA” value (Secretogranin II precursor, FDR 0) was 1.51 and the “fold change (FC), sqstm1 mRNA” value (Sequestosome-1 isoform X1, FDR 0) was 1.69. The “fold change (FC), cdc42bp mRNA” value (Serine/threonine-protein kinase MRCK beta, FDR 0.004184) was 0.37, the “fold change (FC), plk2 mRNA” value (Serine/threonine-protein kinase PLK2, FDR 0) was 5.78 and the “fold change (FC), sec11 mRNA” value (Signal peptidase complex catalytic subunit, FDR 1.55E-131) was 1.55. The “fold change (FC), spcs3 mRNA” value (Signal peptidase complex subunit 3, FDR 2.74E-239) was 1.77, the “fold change (FC), sstr3 mRNA” value (Somatostatin receptor type 3, FDR 3.09E-126) was 0.42 and the “fold change (FC), stat4 mRNA” value (Stat 4-like, FDR 9.86E-21) was 0.86. For the same compound, the “fold change (FC), stat5a mRNA” value (Stat5.2 protein, FDR 0.04174356) was 0.89, the “fold change (FC), sdf2l mRNA” value (Stromal cell-derived factor 2-like 1, FDR 1.30E-57) was 1.55 and the “fold change (FC), tt39b mRNA” value (Tetratricopeptide repeat protein 39B-like, FDR 6.74E-06) was 6.76. For the same compound, the “fold change (FC), rdl mRNA” value (Thiosulfate sulfurtransferase, FDR 3.51E-111) was 1.57, the “fold change (FC), ppp1r10 mRNA” value (Threonine-protein phosphatase 1 regulatory, FDR 2.43E-39) was 0.42 and the “fold change (FC), junb mRNA” value (Transcription factor jun-B, FDR 2.36E-96) was 1.89. The “fold change (FC), rhoa mRNA” value (Transforming protein rhoa, FDR 0.042946) was 0.32, the “fold change (FC), tpisb mRNA” value (Triosephosphate isomerase B, FDR 8.61E-53) was 0.68 and the “fold change (FC), tph1 mRNA” value (Tryptophan 5-hydroxylase 1, FDR 0) was 17.70. For the same compound, the “fold change (FC), tubb mRNA” value (Tubulin beta-4B chain, FDR 3.79E-49) was 0.40, the “fold change (FC), tsg6 mRNA” value (Tumor necrosis factor-inducible gene 6 protein, FDR 1.99E-06) was 5.12 and the “fold change (FC), crh mRNA” value (Urotensin 1, FDR 6.72E-06) was 1.74. For the same compound, the “fold change (FC), snf8 mRNA” value (Vacuolar-sorting protein SNF8-like, FDR 1.18E-06) was 0.44, the “fold change (FC), vdac3 mRNA” value (Voltage-dependent anion-selective protein 3, FDR 5.87E-44) was 0.69 and the “fold change (FC), zbtb8 mRNA” value (Zinc finger domain-containing protein 8A, FDR 1.08E-73) was 1.69. For the same compound, the “fold change (FC), zfp36l mRNA” value (Zinc finger protein 36, C3H type-like 1b, FDR 1.92E-125) was 0.66 and the “fold change (FC), pim1 mRNA” value (threonine-protein kinase pim-1, FDR 0) was 3.25.
